Patent US6407083B1, “Uses of novel organoselenium compounds with pro-oxidant activity” (Oxis International, Inc., priority 1996, dated 2002)
Each block holds one compound with its values, some of them ahead of it.

Tests used:
[1] = tested on: NADPH in the presence of glutathione (GSH) and glutathione disulfide reductase; assay: Glutathione oxidase activity (consumption of NADPH in the presence of GSH and glutathione disulfide reductase); type: biochemical; conditions: pH 7.3, 37° C.
Method: To 1.5 ml of 50 mM HEPES buffer, pH 7.3, containing 2.47 mM of reduced glutathione (GSH), 0.32 mM of nicotinamide adenine dinucleotide phosphate (NADPH), and 1.23 units/ml of glutathione disulfide reductase (GR), at 37° C., are added, in the following order:
320 μl of 50 mM HEPES buffer, pH 7.3, containing 0.1 mM of DTPA, pre-equilibrated at 37° C.
30 μl of a 5 mM ethanolic mother-solution of the compound under test or 30 μl of absolute ethanol (blank). Each compound is tested at a final concentration of 81 μM.
The final reaction volume is 1850 μl.
The glutathione oxidase activity is assayed at 37° C. by measuring the reduction in absorbance at 340 nm over 5 minutes. The said initial enzymatic rate or activity is proportional to the slope of the plot of absorbance against time.
The catalytic activity for oxygen reduction in the compounds under test corresponds to the rate of consumption of NADPH.
Furthermore, the effects of superoxide dismutase (SOD), catalase, iodoacetamide (IAA) and Se-GPx on the glutathione oxidase activity of the tested compounds have been studied.
the necessary and sufficient quantity, variable according to the case, of 50 mM HEPES, pH 7.3, containing 0.1 mM of DTPA, pre-equilibrated at 37° C.; the final reaction volume being 1850 μl.
either 100 μl of a solution of 1850 units/ml of SOD in water of ultrapure quality,
or 100 μl of a solution of 1850 units/ml of catalase in water of ultrapure quality and 100 μl of a solution of 1850 units/ml of SOD in water of ultrapure quality,
or 150 μl of a 6.2 mM solution of iodoacetamide in 50 mM HEPES buffer, pH 7.3, containing 0.1 mM DTPA,
or 100 μl of a solution of 10 units/ml of glutathione peroxidase Se-GPx in 50 mM HEPES buffer, pH 7.3, containing 0.1 mM of DTPA,
or 100 μl of a solution of 1850 units/ml of SOD in water of ultrapure quality, and 100 μl of a solution of 10 units/ml of glutathione peroxidase Se-GPx in 50 mM HEPES buffer, pH 7.3, containing 0.1 mM of DTPA.
30 μl of a 5 mM ethanolic mother-solution of the compound under test.
The glutathione oxidase activity is assayed at 37° C. by monitoring the decrease in the absorbance at 340 nm over 15 minutes. The said initial enzymatic rate or activity is proportional to the slope of the plot of absorbance against time.
The consumption of NADPH has been calculated from the slopes of the curves obtained (OD/minute): [formula]
Vt=total volume of the reaction =1850 μl
ε=molar extinction coefficient of NADPH=[…]. M^−1. cm^−1
They are expressed in nmoles of NADPH oxidized per minute.

[2] = tested on: MCF-7 cells from a breast cancer of human origin; assay: Cytotoxicity on MCF-7 cells (MTT viability test); type: cell-based; conditions: for mortality at 0.195 µM: MCF7, 0.195 μM; for mortality at 0.391 µM: MCF7, 0.391 μM; for mortality at 0.781 µM: MCF7, 0.781 μM; for mortality at 1.562 µM: MCF7, 1.562 μM; for mortality at 3.125 µM: MCF7, 3.125 μM; for mortality at 6.25 µM: MCF7, 6.25 μM; for mortality at 12.5 µM: MCF7, 12.5 μM; for mortality at 25 µM: MCF7, 25 μM; for mortality at 50 µM: MCF7, 50 μM
Method: The MCF-7 cells from a breast cancer of human origin are cultivated, in an atmosphere of a gaseous mixture of 95% air and 5% CO2, saturated with water, two days before the test, in order to be in a growth phase during the toxicity test. The cells are trypsinized and are collected in a RPMI 1640 medium containing 10% FCS, 10 mM HEPES, 1 mM pyruvate, 4 mM L-glutamine, 100 U/ml penicillin, 100 μg/ml streptomycin, in order to be centrifuged at 1,500 rpm for 10 minutes. The cell pellet is resuspended in the same medium in order to obtain a cell density of 30,000 cells/cm^2.
The compounds of general structure IA described in the present invention are solubilised at 10 mM in absolute ethanol and diluted in RPMI-10% FCS culture medium, the final volume of ethanol in the reaction medium is 0.5% (v/v). The molecules are studied at the following concentrations: 50; 25; 12.5; 6.25; 3.125; 1.562; 0.781; 0.391 and 0.195 μM. Two controls are carried out, in the presence and in the absence of ethanol respectively, using 100 μl of cell suspension of 30,000 cells/cm^2 incubated with 100 μl of RPMI-10% FCS medium and ±0.5% of ethanol (v/v).
Before starting the study, the cells are rinsed with PBS buffer which contains neither calcium nor magnesium. The cells are then incubated with 200 μl of compound under test, or with the medium containing or not 0.5% of ethanol (controls) for either 24 or 48 hours under an atmosphere of a gaseous mixture of 95% air and 5% CO2, saturated with water, at 37° C., then submitted to the viability test with MTT according to the following protocol.
To 200 μl of culture medium are added 50 μl of MTT at 5 mg/ml in PBS buffer. After 4 hours of incubation at 37° C., the plate is centrifuged for 10 minutes at 3,000 rpm. The supernatant is removed and the cell pellet is resuspended in 100 μl of DMSO. This is left to incubate for 10 minutes with stirring at 37° C. The coloration developed is measured at 550 nm against DMSO. The optical density OD=f(living cells) can then be plotted as a function of time.

SMILES: CC1(C)N[Se]c2c([N+](=O)[O-])cccc21 [Bxt-51062, 3,3-Dimethyl-7-nitrobenzisoselenazoline]
GSH oxidase activity, nmole NADPH oxidized/min ([1]; compound + GSH + GR-NADPH + SOD and CAT): 79.29 nmole NADPH oxidized/min
GSH oxidase activity, nmole NADPH oxidized/min ([1]; compound + GSH + GR-NADPH + SOD): 78.78 nmole NADPH oxidized/min
GSH oxidase activity, nmole NADPH oxidized/min ([1]; compound + GSH + GR-NADPH + Se-GPx and SOD): 78.45 nmole NADPH oxidized/min
GSH oxidase activity, nmole NADPH oxidized/min ([1]; compound + GSH + GR-NADPH + Se-GPx): 80.61 nmole NADPH oxidized/min
GSH oxidase activity, nmole NADPH oxidized/min ([1]; compound + GSH + GR-NADPH ± IAA (iodoacetamide)): 76.25 nmole NADPH oxidized/min
GSH oxidase activity, nmole NADPH oxidized/min ([1]; compound + GSH + GR-NADPH, no further effector): 77.17 nmole NADPH oxidized/min
mortality at 0.195 µM ([2]; 24 h): 0%
mortality at 0.195 µM ([2]; 48 h): 2.22%
mortality at 0.391 µM ([2]; 24 h): 0%
mortality at 0.391 µM ([2]; 48 h): 0%
mortality at 0.781 µM ([2]; 24 h): 23.6%
mortality at 0.781 µM ([2]; 48 h): 32.5%
mortality at 1.562 µM ([2]; 24 h): 42.7%
mortality at 1.562 µM ([2]; 48 h): 58.5%
mortality at 3.125 µM ([2]; 24 h): 70.1%
mortality at 3.125 µM ([2]; 48 h): 83%
mortality at 6.25 µM ([2]; 24 h): 100%
mortality at 6.25 µM ([2]; 48 h): 100%
mortality at 12.5 µM ([2]; 24 h): 100%
mortality at 12.5 µM ([2]; 48 h): 100%
mortality at 25 µM ([2]; 24 h): 100%
mortality at 25 µM ([2]; 48 h): 100%
mortality at 50 µM ([2]; 24 h): 100%
mortality at 50 µM ([2]; 48 h): 100%

SMILES: CC1(C)c2cccc([N+](=O)[O-])c2[Se]N1CCO [Bxt-57001, N-(2-hydroxyethyl)-3,3-dimethyl-7-nitrobenzisoselenazoline]
mortality at 0.195 µM ([2]; 24 h): 0%
mortality at 0.195 µM ([2]; 48 h): 0%
mortality at 0.391 µM ([2]; 24 h): 0%
mortality at 0.391 µM ([2]; 48 h): 0%
mortality at 0.781 µM ([2]; 24 h): 16.9%
mortality at 0.781 µM ([2]; 48 h): 0%
mortality at 1.562 µM ([2]; 24 h): 29.4%
mortality at 1.562 µM ([2]; 48 h): 20%
mortality at 3.125 µM ([2]; 24 h): 23.9%
mortality at 3.125 µM ([2]; 48 h): 23.3%
mortality at 6.25 µM ([2]; 24 h): 55%
mortality at 6.25 µM ([2]; 48 h): 41.2%
mortality at 12.5 µM ([2]; 24 h): 75.3%
mortality at 12.5 µM ([2]; 48 h): 58.5%
mortality at 25 µM ([2]; 24 h): 99.1%
mortality at 25 µM ([2]; 48 h): 99.8%
mortality at 50 µM ([2]; 24 h): 99.8%
mortality at 50 µM ([2]; 48 h): 100%

SMILES: CC(=O)N1[Se]c2c([N+](=O)[O-])cccc2C1(C)C [Bxt-57004, N-acetyl-3,3-dimethyl-7-nitrobenzisoselenazoline]
mortality at 0.195 µM ([2]; 24 h): 0%
mortality at 0.195 µM ([2]; 48 h): 17.4%
mortality at 0.391 µM ([2]; 24 h): 3.19%
mortality at 0.391 µM ([2]; 48 h): 12.8%
mortality at 0.781 µM ([2]; 24 h): 34.9%
mortality at 0.781 µM ([2]; 48 h): 38.6%
mortality at 1.562 µM ([2]; 24 h): 59.4%
mortality at 1.562 µM ([2]; 48 h): 60.5%
mortality at 3.125 µM ([2]; 24 h): 71.2%
mortality at 3.125 µM ([2]; 48 h): 69.1%
mortality at 6.25 µM ([2]; 24 h): 73.3%
mortality at 6.25 µM ([2]; 48 h): 76.4%
mortality at 12.5 µM ([2]; 24 h): 79.8%
mortality at 12.5 µM ([2]; 48 h): 75.8%
mortality at 25 µM ([2]; 24 h): 92.8%
mortality at 25 µM ([2]; 48 h): 88.4%
mortality at 50 µM ([2]; 24 h): 100%
mortality at 50 µM ([2]; 48 h): 100%

SMILES: CC/C(=C(\c1ccccc1)c1ccc(OCCN2[Se]c3c([N+](=O)[O-])cccc3C2(C)C)cc1)c1ccccc1 [Bxt-57007, N-{2-[4-(1,2-diphenylbut-1-en-1-yl)phenoxy]ethyl}3,3-dimethyl-7-nitrobenzisoselenazoline]
mortality at 0.195 µM ([2]; 24 h): 0%
mortality at 0.195 µM ([2]; 48 h): 1.07%
mortality at 0.391 µM ([2]; 24 h): 1.02%
mortality at 0.391 µM ([2]; 48 h): 8.42%
mortality at 0.781 µM ([2]; 24 h): 8.39%
mortality at 0.781 µM ([2]; 48 h): 14.2%
mortality at 1.562 µM ([2]; 24 h): 12.9%
mortality at 1.562 µM ([2]; 48 h): 25.1%
mortality at 3.125 µM ([2]; 24 h): 13.3%
mortality at 3.125 µM ([2]; 48 h): 18.7%
mortality at 6.25 µM ([2]; 24 h): 19.4%
mortality at 6.25 µM ([2]; 48 h): 33.2%
mortality at 12.5 µM ([2]; 24 h): 28.6%
mortality at 12.5 µM ([2]; 48 h): 44.6%
mortality at 25 µM ([2]; 24 h): 36.6%
mortality at 25 µM ([2]; 48 h): 46.8%
mortality at 50 µM ([2]; 24 h): 40.8%
mortality at 50 µM ([2]; 48 h): 46.3%

Further lines, results first:

melting point: 127 °C
SMILES: CC(=O)N1CC(C)(C)c2cccc([N+](=O)[O-])c2[Se]1

melting point: 108 °C
SMILES: CC1(C)CN[Se]c2c([N+](=O)[O-])cccc21

melting point: 95 °C
SMILES: CC12CCC3c4ccc(O)cc4CC(CCCCCCCCN4[Se]c5c([N+](=O)[O-])cccc5C4(C)C)C3C1CCC2O (stereo not shown)

melting point: 128 °C
SMILES: CC12CCC3c4ccc(O)cc4CC(CCCCCCCC(=O)N4[Se]c5c([N+](=O)[O-])cccc5C4(C)C)C3C1CCC2O (stereo not shown)
